This is an account of results in patent US12435032B2, “L-γ-methyleneglutamine compounds and methods of use” (University of Mississippi, priority 2019, dated 2025).

One data set has as its system newborn rat spinal cord. Particulars: cited from earlier work.
The test system of data set [1] is central nervous system (CNS). The note with it: cited from earlier work.
The test system of data set [2] is MCF-7 (ER+/PR+/HER2−) breast cancer cells. As to the kind of experiment: Growth inhibition of MCF-7 cells (Hoechst 33342 fluorescence vs non-treated wells). Particulars: Homo sapiens, dose-response 0.32-320 μM. The class given is cell-based. The procedure: (§1) Olaparib was chosen because it is one of a few FDA-approved chemotherapeutics for triple-negative breast cancer.
(§2) Cells were incubated for 15 minutes at 37° C.

For data set [3], the system named is SK-BR-3 (ER−/PR−/HER2+) breast cancer cells. Briefly: Growth inhibition of SK-BR-3 cells. The class given is cell-based. Particulars: Homo sapiens, dose-response 0.32-320 μM. As to the method: as §1, §2
Data set [4] relates to triple-negative MDA-MB-231 breast cancer cells. Briefly: Growth inhibition of MDA-MB-231 cells. It counts as cell-based. The note with it: for IC50: Homo sapiens; for IC50 / Growth Inhibition IC50: dose-response 0.32-320 μM. As to the method:
as §1, §2

Data set [5] deals with MCF-10A non-cancerous breast cells. Briefly: Growth inhibition of MCF-10A cells (negative control line). It counts as cell-based. Particulars: Homo sapiens, dose-response 0.32-320 μM. As to the method: as §1, §2
Data set [6] deals with MCF-7 breast cancer cells. As to the kind of experiment: Cytotoxicity (cell death, propidium iodide) in MCF-7 cells. The class given is cell-based. Particulars: Homo sapiens, MCF7, dose-response 0.32-320 μM, read-out: Cytotoxicity EC50.
Data set [7] deals with SK-BR-3 breast cancer cells. As to the kind of experiment: Cytotoxicity (cell death, propidium iodide) in SK-BR-3 cells. The class given is cell-based. Particulars: for EC50: Homo sapiens, dose-response 0.32-320 μM; for cytotoxicity EC50: SK-BR-3, 72 h / after the first 24 h.
A short description of data set [8]: Cytotoxicity (cell death, propidium iodide) in MCF-10A cells. The class given is cell-based. Particulars: human, MCF-10A non-cancerous breast cells. The procedure:
(§3) To assess the selectivity of cytotoxicity for cancer cells, all drugs and compounds were screened against MCF-10A, non-cancerous breast cells.
as §2

Data set [9] deals with triple-negative MDA-MB-231 breast cancer cells.
Data set [10] shares this test system. Briefly: cells. Particulars: Homo sapiens, read-out: Cytotoxicity EC50.
Data set [11] has as its system MCF-10A non-cancerous breast cells. As to the kind of experiment: Cytotoxicity (cell death, propidium iodide) in MCF-10A cells. It counts as cell-based. As to the method:
as §3, §2

[12] abbreviates: MCF7, 24 h, MCF-7, 24 h exposure.
Where [13] appears, read: MCF7, 72 h, MCF-7, 72 h exposure.

Like-named read-outs stand apart in the source and are kept apart here.

Broadly, the IC50 is the concentration that gives 50% inhibition. Low values mean inhibition by little substance, high ones a need for much substance. Broadly, the EC50 is the midpoint of the concentration-response curve.

Take `C=C(C[C@H](N)C(=O)O)C(=O)O` [Compound 2, L-γ-methyleneglutamic acid]: the “potency relative to L-glutamate as a depolarizing agent” value in the data set on newborn rat spinal cord was 10 times. The “central nervous system (CNS) inhibitory activity” value in data set [1] is on record as “strong”.

For the compound `C=C(C[C@H](N)C(=O)O)C(=O)Nc1ccccc1` [Compound 3, (S)-2-amino-4-(phenylcarbamoyl) pent-4-enoic acid], the concentration for half-maximal inhibition (IC50) in data set [2] (setting [12]) is over 1000 µM; in data set [2] (setting [13]) it was 250 µM; in data set [3] (SK-BR-3, 24 h exposure), 36.9 µM; in [3] (SK-BR-3, 72 h exposure), 1.7 µM; in data set [4] (MDA-MB-231, 24 h exposure), 777 µM; in data set [4] (MDA-MB-231, 72 h exposure), 814 µM. Moreover, the half-inhibitory concentration (IC50) in data set [5] (24 h exposure) and in [5] (72 h exposure) was over 1000 µM in each case. Further, the “Growth Inhibition IC50” value in data set [4] (MDA-MB-231, 72 h exposure) was “poorer potency than olaparib”. Moreover, the 50% effective concentration (EC50) in data set [6] (MCF-7, 24 h exposure) was 421 µM; in data set [6] (MCF-7, 72 h exposure), 2 µM; in data set [7] (SK-BR-3, 24 h exposure), 0.2 µM; in [7] (SK-BR-3, 72 h exposure) it was over 1000 µM; in [10] (MDA-MB-231, 24 h) it was 541 µM; in [10] (MDA-MB-231, 72 h) it was 409 µM. For the same compound, the “cytotoxicity EC50” value in [7] is given as “much reduced toxicity”. In addition, the concentration giving a half-maximal response (EC50) at 24 h in data set [8] (24 h exposure) and in data set [8] (head prints 24 h) was over 1000 µM throughout. Also, the “cytotoxic EC50 compared with positive controls” value in [9] was “significantly greater than tamoxifen”.

Take `C=C(C[C@H](N)C(=O)O)C(=O)NCc1ccccc1` [Compound 4, (S)-2-amino-4-(benzylcarbamoyl) pent-4-enoic acid]: the IC50 in [2] (setting [12]) is over 1000 µM; in data set [2] (setting [13]), 197 µM; in data set [3] (SK-BR-3, 24 h exposure) it was 74.2 µM; in [3] (SK-BR-3, 72 h exposure) it was 0.6 µM; in data set [4] (MDA-MB-231, 24 h exposure), 481 µM; in [4] (MDA-MB-231, 72 h exposure) it was 649 µM. The 50% inhibitory concentration (IC50) in data set [5] (24 h exposure) and in data set [5] (72 h exposure) was over 1000 µM throughout. For the same compound, the “Growth Inhibition IC50” value in data set [4] (MDA-MB-231, 72 h exposure) is on record as “poorer potency than olaparib”. In addition, the EC50 in [6] (MCF-7, 24 h exposure) was 664 µM; in data set [6] (MCF-7, 72 h exposure), 218 µM; in data set [7] (SK-BR-3, 24 h exposure), 0.1 µM; in data set [7] (SK-BR-3, 72 h exposure), over 1000 µM; in data set [10] (MDA-MB-231, 24 h), 374 µM; in data set [10] (MDA-MB-231, 72 h), 980 µM. Also, the “cytotoxicity EC50” value in data set [7] was “much reduced toxicity”; in [11] (after the first 24 h), “EC50 in the micromolar range”. The EC50 at 24 h in data set [8] (24 h exposure) is over 1000 µM; in data set [8] (head prints 24 h), 563 µM.

Turning to `C=C(C[C@H](N)C(=O)O)C(=O)NCc1ccc(F)cc1` [Compound 5, (S)-2-amino-4-((4-fluorobenzyl)carbamoyl)pent-4-enoic acid], the 50% inhibitory concentration (IC50) in data set [2] (setting [12]) is 590 µM; in data set [2] (setting [13]), 85.3 µM; in [3] (SK-BR-3, 24 h exposure), 3.9 µM; in data set [3] (SK-BR-3, 72 h exposure) it was 4.5 µM; in data set [4] (MDA-MB-231, 24 h exposure), 350 µM; in [4] (MDA-MB-231, 72 h exposure), 339 µM. Further, the 50% inhibitory concentration (IC50) in [5] (24 h exposure) and in data set [5] (72 h exposure) was over 1000 µM each time. Moreover, the “growth inhibition potency compared with olaparib” value in data set [4] (MDA-MB-231, throughout testing (24 h and 72 h)) was “equipotent to olaparib”. The EC50 in [6] (MCF-7, 24 h exposure) is over 1000 µM; in [6] (MCF-7, 72 h exposure), 54.5 µM; in data set [7] (SK-BR-3, 24 h exposure) it was over 1000 µM; in [7] (SK-BR-3, 72 h exposure), 0.4 µM; in data set [10] (MDA-MB-231, 24 h) it was 265 µM; in data set [10] (MDA-MB-231, 72 h), 262 µM. The “cytotoxicity” value in data set [7] (SK-BR-3, 24 h exposure) was “devoid of toxicity”. For the same compound, the “cytotoxicity EC50” value is reported as “cell death was apparent” in [7] and “EC50 below the millimolar range” in data set [11] (within the first 24 h). The results for the concentration for a half-maximal effect (EC50) at 24 h in [8] (24 h exposure) and in data set [8] (head prints 24 h) were 796 µM and over 1000 µM, respectively.
